Legend:
Assay type in all cases: physicochemical
[1] = Equilibrium solubility in water and aqueous media; conditions: 22.5 °C, thermodynamic from solid
Method: In all studies, excess solid of the compound was allowed to equilibrate at a temperature in the range of about 20 to 25° C. for 12-48 hours while stirring.

[2] = Solubility in organic solvents; conditions: 20 °C, thermodynamic from solid, 20 to 25° C., at least 12 hours
Method: In all studies, excess solid of the compound was allowed to equilibrate for at least 12 hours while stirring.

[3] = Photostability of solid powder (1×ICH dose UV and visible light), HPLC; conditions: for degradation: 1×ICH dose, clear glass vials
Method: (§1) High performance liquid chromatography (HPLC) analyses were performed on an Agilent 1100 or 1200 series HPLC equipped with a binary pump, diode-array detector, thermostated column compartment, and auto sampler. Separation and elution was achieved using a reverse-phase column and 0.1% triflouroacetic acid/water/acetonitrile mobile phase.
As shown in the table below minimal degradation, 0.4% and 0.2%, was detected in samples in clear glass vials under UV and visible light, respectively.

[4] = Solid state stability under accelerated stability testing conditions, HPLC
Method: as §1
Solid samples of the free base monohydrate form of Compound M were placed under accelerated stability testing conditions (25° C./60% RH, 40° C./75% RH and 60° C./ambient RH) for 12 weeks.

[5] = Visible (1200 klux × h), Amber vial
[6] = Visible (1200 klux × h), Clear vial

In the case of `COCCOc1cnc2ccn([C@H](C)c3nnc4c(F)cc(-c5cnn(C)c5)cn34)c(=O)c2c1` [free base monohydrate form of Compound M, 6-{(1R)-1-[8-fluoro-6-(1-methyl-1H-pyrazol-4-yl)[1,2,4]triazolo[4,3-a]pyridin-3-yl]ethyl}-3-(2-methoxyethoxy)-1,6-naphthyridin-5(6H)-one], the solubility ([1]; 0.01N HCl, pH 1.9, simulated gastric fluid, 0.01N HCl, pH 1.9, 20 to 25° C., 12-48 hours, read-out: Solubility) is reported as 350 µg/mL, the solubility ([1]; FaSIF, pH 6.8, fassif, FaSIF, pH 6.8, 20 to 25° C., 12-48 hours, read-out: Solubility) is reported as 440 µg/mL and the solubility ([1]; PBS, pH 6.9, aqueous buffer, PBS, pH 6.9, 20 to 25° C., 12-48 hours, read-out: Solubility) is reported as 180 µg/mL. It also gave a solubility ([1]; SGF, pH 2.1, aqueous with cosolvent or surfactant or cyclodextrin, SGF (0.25% (w/v) SDS 0.2% (w/v) NaCl in 0.01N HCl), pH 2.1, 20 to 25° C., 12-48 hours, read-out: Solubility) of 1440 µg/mL, a solubility ([1]; aqueous medium, pH adjusted with HCl, pH 0.73, aqueous buffer, pH 0.73 (adjusted with HCl), read-out: solubility) of 9740 µg/mL and a solubility ([1]; aqueous medium, pH adjusted with methane sulfonic acid, pH 0.8, aqueous buffer, pH 0.80 (adjusted with methane sulfonic acid), read-out: solubility) of 12400 µg/mL. For the same molecule, the solubility at 40 h ([1]; water, pH 4.7, water, Sample 1, duration 40 h, isolation method 1, pH 4.70, about 20 to 25° C.) was 253 µg/mL, the solubility ([1]; water, water, water, pH about 4 to about 7, about 20° C. to about 25° C., read-out: aqueous solubility) was 260 µg/mL and the solubility ([2]; aqueous with cosolvent or surfactant or cyclodextrin, 25% Dimethyl sulfoxide in water, solid form: monohydrate) was 0.59 mg/mL. The solubility ([2]; aqueous with cosolvent or surfactant or cyclodextrin, 50% Dimethyl sulfoxide in water, solid form: monohydrate) was 1.02 mg/mL, the solubility ([2]; aqueous with cosolvent or surfactant or cyclodextrin, 75% Dimethyl sulfoxide in water, solid form: monohydrate) was 8.45 mg/mL and the solubility ([2]; organic solvent or mixture, Acetonitrile, solid form: monohydrate (extra peak observed)) was 127 mg/mL. It also gave a solubility ([2]; organic solvent or mixture, Ethanol, solid form: monohydrate) of 29.7 mg/mL, a solubility ([2]; organic solvent or mixture, Ethyl Acetate, solid form: monohydrate) of 20.1 mg/mL and a solubility ([2]; organic solvent or mixture, Isopropanol, solid form: monohydrate) of 8.8 mg/mL. For the same molecule, the solubility ([2]; organic solvent or mixture, Methanol, solid form: monohydrate) was 53.9 mg/mL, the solubility ([2]; organic solvent or mixture, Methyl Ethyl Ketone, solid form: monohydrate + trace acetone solvate) was 45.8 mg/mL and the solubility ([2]; organic solvent or mixture, Toluene, solid form: monohydrate) was 1.9 mg/mL. The chemical degradation ([3]; 1×ICH dose for UV and visible light, amber glass vials) was “no chemical degradation”, the “Area % (215 nm), peak No MS signal, RRT 0.80” value ([3]; UV (200 W × h/m^2), Amber vial) was <0.01 Area % and the “Area % (215 nm), peak m/z 390, RRT 0.84” value ([3]; UV (200 W × h/m^2), Amber vial) was 0.06 Area %. For the same molecule, the “Area % (215 nm), peak m/z 520 [M + Na]^+, RRT 0.83” value (“Area % (215 nm) … RRT 0.83” below) ([3]; UV (200 W × h/m^2), Amber vial) was <0.01 Area %, the “Area % (215 nm), peak m/z 581, RRT 0.82” value ([3]; UV (200 W × h/m^2), Amber vial) was <0.01 Area % and the “Area % (215 nm), peak m/z 638, RRT 1.16” value ([3]; UV (200 W × h/m^2), Amber vial) was 0.05 Area %. For the same molecule, the “Area % (215 nm), peak monohydrate, RRT 1.00” value (“Area % (215 nm) … RRT 1.00” for short) ([3]; UV (200 W × h/m^2), Amber vial) was 99.89 Area %, the “Total Impurities, Area % (215 nm)” value ([3]; UV (200 W × h/m^2), Amber vial) was 0.11 Area % and the “Area % (215 nm), peak No MS signal, RRT 0.80” value ([3]; UV (200 W × h/m^2), Clear vial) was 0.02 Area %. For the same molecule, the “Area % (215 nm), peak m/z 390, RRT 0.84” value ([3]; UV (200 W × h/m^2), Clear vial) was 0.19 Area %, the “Area % (215 nm) … RRT 0.83” value ([3]; UV (200 W × h/m^2), Clear vial) was 0.06 Area % and the “Area % (215 nm), peak m/z 581, RRT 0.82” value ([3]; UV (200 W × h/m^2), Clear vial) was 0.05 Area %. The “Area % (215 nm), peak m/z 638, RRT 1.16” value ([3]; UV (200 W × h/m^2), Clear vial) was 0.04 Area %, the “Area % (215 nm) … RRT 1.00” value ([3]; UV (200 W × h/m^2), Clear vial) was 99.64 Area % and the “Total Impurities, Area % (215 nm)” value ([3]; UV (200 W × h/m^2), Clear vial) was 0.36 Area %. The degradation ([3]; UV light) was 0.4%, the “Area % (215 nm), peak No MS signal, RRT 0.80” value [3, 5] was <0.01 Area % and the “Area % (215 nm), peak m/z 390, RRT 0.84” value [3, 5] was 0.05 Area %. The “Area % (215 nm) … RRT 0.83” value [3, 5] was <0.01 Area %, the “Area % (215 nm), peak m/z 581, RRT 0.82” value [3, 5] was <0.01 Area % and the “Area % (215 nm), peak m/z 638, RRT 1.16” value [3, 5] was 0.05 Area %. The “Area % (215 nm) … RRT 1.00” value [3, 5] was 99.89 Area %, the “Total Impurities, Area % (215 nm)” value [3, 5] was 0.11 Area % and the “Area % (215 nm), peak No MS signal, RRT 0.80” value [3, 6] was <0.01 Area %. The “Area % (215 nm), peak m/z 390, RRT 0.84” value [3, 6] was 0.13 Area %, the “Area % (215 nm) … RRT 0.83” value [3, 6] was <0.01 Area % and the “Area % (215 nm), peak m/z 581, RRT 0.82” value [3, 6] was <0.01 Area %. The “Area % (215 nm), peak m/z 638, RRT 1.16” value [3, 6] was 0.04 Area %, the “Area % (215 nm) … RRT 1.00” value [3, 6] was 99.83 Area % and the “Total Impurities, Area % (215 nm)” value [3, 6] was 0.17 Area %. For the same molecule, the degradation ([3]; visible light) was 0.2%, the “changes in solid state properties” value ([4]; 25° C./60% RH, 40° C./75% RH and 60° C./ambient RH for 12 weeks) was “no changes in solid state properties were observed” and the “Area % (215 nm), peak 2, RRT 1.09” value ([4]; Initial) was <0.1 Area %. For the same molecule, the “Area % (215 nm), peak 3, RRT 1.25” value ([4]; Initial) was <0.1 Area %, the “Area % (215 nm), peak 4, RRT 1.53” value ([4]; Initial) was <0.1 Area % and the “Area % (215 nm) … RRT 1.00” value ([4]; Initial) was 100.0 Area %. The “Total Impurities, Area % (215 nm)” value ([4]; Initial) was <0.1 Area %, the “Area % (215 nm), peak 2, RRT 1.09” value ([4]; Week 2, 25/60) was 0.27 Area % and the “Area % (215 nm), peak 3, RRT 1.25” value ([4]; Week 2, 25/60) was 0.28 Area %. For the same molecule, the “Area % (215 nm), peak 4, RRT 1.53” value ([4]; Week 2, 25/60) was 0.28 Area %, the “Area % (215 nm) … RRT 1.00” value ([4]; Week 2, 25/60) was 99.18 Area % and the “Total Impurities, Area % (215 nm)” value ([4]; Week 2, 25/60) was 0.82 Area %.

From patent US9981988B2, “Polymorphic forms and co-crystals of a c-Met inhibitor” (AMGEN, INC., priority 2014, dated 2018)
